Experimental data taken from US20260184663A1, “INDENE COMPOUNDS, PHARMACEUTICAL COMPOSITIONS THEREOF, AND THEIR THERAPEUTIC APPLICATIONS” (NucMito Pharmaceuticals co. Ltd., priority 2022, published 2026).
Read-outs that look alike come from different tables or passages of the source.

Legend:
Type in all cases: cell-based
[1] = tested on: HeLa (cervical cancer); experiment: Antiproliferative activity (CCK-8 cell viability), HeLa; conditions: Homo sapiens, 72 h, read-out: Antiproliferative activity in cancerous cells, HELA (inhibition of cell growth); for inhibition at 3.3 µM: Compound concentration: 3.3 μM; for inhibition at 10 µM: Compound concentration: 10 μM
Outline: (§1)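 Cells were seeded at 2,000-5,000/well (HeLa in MEM, HepG2 and SW480 in DMEM, A549 in F-12K, all with 10% FBS) and treated with compound at 3.3, 10 or 30 μM for 72 h at 37° C. CCK-8 was added for 4 h, absorbance was read at 450 nm, and viability was expressed relative to DMSO-treated wells.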

[2] = tested on: A549 (lung adenocarcinoma); experiment: Antiproliferative activity (CCK-8 cell viability), A549; conditions: Homo sapiens, 72 h; for inhibition at 3.3 µM: Compound concentration: 3.3 μM; for inhibition at 10 µM: Compound concentration: 10 μM; for inhibition at 30 µM: Compound concentration: 30 μM
Outline: as §1

[3] = tested on: A431 (epidermoid carcinoma); experiment: Antiproliferative activity (CCK-8 cell viability), A431; conditions: Homo sapiens, 72 h; for inhibition at 3.3 µM: A-431, Compound concentration: 3.3 μM; for inhibition at 10 µM: A-431, Compound concentration: 10 μM; for inhibition at 30 µM: A-431, Compound concentration: 30 μM
Outline: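 Cell viability of compound-treated A431 cells was measured with a Cell Counting Kit-8. Each well received 10 μL of CCK-8 after 72 h of compound exposure, followed by 4 h incubation at 37° C. and a 450 nm plate-reader measurement. Percent viability was calculated relative to DMSO controls across replicates.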

[4] = tested on: SW480 (colon cancer); experiment: Antiproliferative activity (CCK-8 cell viability), SW480; conditions: Homo sapiens, 72 h; for inhibition at 3.3 µM: Compound concentration: 3.3 μM; for inhibition at 10 µM: Compound concentration: 10 μM; for inhibition at 30 µM: Compound concentration: 30 μM
Outline: as §1

[5] = tested on: B16F10 (malignant melanoma); experiment: Antiproliferative activity (CCK-8 cell viability), B16F10; conditions: Mus musculus, 72 h, read-out: Antiproliferative activity in cancerous cells, B16F10 (inhibition of cell growth); for inhibition at 3.3 µM: B16-F10, Compound concentration: 3.3 μM; for inhibition at 10 µM: B16-F10, Compound concentration: 10 μM
Outline: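 Attached B16F10 cells in 96-well plates were incubated with compound at 37° C for 72 h, followed by 10 μL CCK-8 reagent per well and a further 4 h incubation. A multi-well plate reader measured absorbance at 450 nm. Percent viability across replicates was calculated against DMSO vehicle-treated cells.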

[6] = tested on: MDA-MB-231 (breast cancer); experiment: Antiproliferative activity (CCK-8 cell viability), MDA-MB-231; conditions: Homo sapiens, 72 h; for inhibition at 3.3 µM: Compound concentration: 3.3 μM; for inhibition at 10 µM: Compound concentration: 10 μM; for inhibition at 30 µM: Compound concentration: 30 μM
Outline: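 In this CCK-8 viability assay, MDA-MB-231 cells maintained in Dulbecco's modified Eagle's medium containing 10% fetal bovine serum were placed in 96-well plates (2,000-5,000 cells/well) and treated with compound for 72 h at 37° C. A 4 h incubation with 10 μL CCK-8 followed, plates were read at 450 nm, and viability was expressed against DMSO vehicle wells across replicates.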

[7] = tested on: HepG2 (liver cancer); experiment: Antiproliferative activity (CCK-8 cell viability), HepG2; conditions: Homo sapiens, 72 h, read-out: Antiproliferative activity in cancerous cells, HepG2 (inhibition of cell growth); for inhibition at 3.3 µM: Compound concentration: 3.3 μM; for inhibition at 10 µM: Compound concentration: 10 μM
Outline: as §1

[8] = read-out: Antiproliferative activity in cancerous cells, A549 (inhibition of cell growth)
[9] = read-out: Antiproliferative activity in cancerous cells, A431 (inhibition of cell growth)
[10] = read-out: Antiproliferative activity in cancerous cells, SW480 (inhibition of cell growth)
[11] = read-out: Antiproliferative activity in cancerous cells, MDA-MB-231 (inhibition of cell growth)

CCc1ccc2c(c1)C(CC(=O)O)=C(C)/C2=C/c1ccc(COCc2ccc(Cl)cc2)cc1 [B122, (Z)-2-(1-(4-(((4-Chlorobenzyl)oxy)methyl)benzylidene)-5-ethyl-2-methyl-1H-inden-3-yl)acetic acid]
inhibition at 3.3 µM [1]: < 30% | inhibition at 10 µM [1]: ≥ 50% | inhibition at 3.3 µM [2, 8]: 30 to 50% | inhibition at 10 µM [2, 8]: ≥ 50% | inhibition at 3.3 µM [3, 9]: ≥ 50% | inhibition at 10 µM [3, 9]: ≥ 50% | inhibition at 3.3 µM [4, 10]: 30 to 50% | inhibition at 10 µM [4, 10]: ≥ 50% | inhibition at 3.3 µM [5]: 30 to 50% | inhibition at 10 µM [5]: ≥ 50% | inhibition at 3.3 µM [6, 11]: < 30% | inhibition at 10 µM [6, 11]: ≥ 50% | inhibition at 3.3 µM [7]: ≥ 50% | inhibition at 10 µM [7]: ≥ 50%

CC1=C(CC(=O)O)c2cc(F)ccc2/C1=C/c1cccc(Oc2cccc(Cl)c2)c1 [E26, (E)-2-(1-(3-(3-Chlorophenoxy)benzylidene)-5-fluoro-2-methyl-1H-inden-3-yl)acetic acid]
inhibition at 3.3 µM [1]: < 30% | inhibition at 10 µM [1]: ≥ 50% | inhibition at 30 µM ([1]; Compound concentration: 30 μM): ≥ 50% | inhibition at 3.3 µM [2, 8]: < 30% | inhibition at 10 µM [2, 8]: < 30% | inhibition at 30 µM [2, 8]: ≥ 50% | inhibition at 3.3 µM [3, 9]: < 30% | inhibition at 10 µM [3, 9]: ≥ 50% | inhibition at 30 µM [3, 9]: ≥ 50% | inhibition at 3.3 µM [4, 10]: < 30% | inhibition at 10 µM [4, 10]: < 30% | inhibition at 30 µM [4, 10]: ≥ 50% | inhibition at 3.3 µM [5]: < 30% | inhibition at 10 µM [5]: < 30% | inhibition at 30 µM ([5]; B16-F10, Compound concentration: 30 μM): ≥ 50% | inhibition at 3.3 µM [6, 11]: < 30% | inhibition at 10 µM [6, 11]: < 30% | inhibition at 30 µM [6, 11]: ≥ 50% | inhibition at 3.3 µM [7]: < 30% | inhibition at 10 µM [7]: ≥ 50% | inhibition at 30 µM ([7]; Compound concentration: 30 μM): ≥ 50%

CC1=C(CC(=O)O)c2cc(F)ccc2/C1=C\c1cccc(Oc2ccc(C)cc2)c1 [C96, (Z)-2-(5-Fluoro-2-methyl-1-(3-(p-tolyloxy)benzylidene)-1H-inden-3-yl)acetic acid]
inhibition at 3.3 µM [1]: 30 to 50% | inhibition at 10 µM [1]: ≥ 50% | inhibition at 3.3 µM [2, 8]: < 30% | inhibition at 10 µM [2, 8]: ≥ 50% | inhibition at 3.3 µM [3, 9]: ≥ 50% | inhibition at 10 µM [3, 9]: ≥ 50% | inhibition at 3.3 µM [4, 10]: < 30% | inhibition at 10 µM [4, 10]: < 30% | inhibition at 3.3 µM [5]: 30 to 50% | inhibition at 10 µM [5]: 30 to 50% | inhibition at 3.3 µM [6, 11]: < 30% | inhibition at 10 µM [6, 11]: < 30% | inhibition at 3.3 µM [7]: 30 to 50% | inhibition at 10 µM [7]: ≥ 50%

CC1=C(CC(=O)O)c2cc(F)ccc2/C1=C\c1cccc([S+]([O-])c2ccc(F)cc2)c1 (stereo not drawn) [C43, (Z)-2-(5-Fluoro-1-(3-((4-fluorophenyl)sulfinyl)benzylidene)-2-methyl-1H-inden-3-yl)acetic acid]
inhibition at 3.3 µM [1]: < 30% | inhibition at 10 µM [1]: 30 to 50% | inhibition at 3.3 µM [2, 8]: < 30% | inhibition at 10 µM [2, 8]: 30 to 50% | inhibition at 3.3 µM [3, 9]: 30 to 50% | inhibition at 10 µM [3, 9]: 30 to 50% | inhibition at 30 µM ([3]; read-out: Antiproliferative activity in cancerous cells, A431): 30 to 50% | inhibition at 3.3 µM [4, 10]: < 30% | inhibition at 10 µM [4, 10]: < 30% | inhibition at 3.3 µM [5]: < 30% | inhibition at 10 µM [5]: < 30% | inhibition at 3.3 µM [6, 11]: 30 to 50% | inhibition at 10 µM [6, 11]: ≥ 50% | inhibition at 3.3 µM [7]: < 30% | inhibition at 10 µM [7]: < 30%

CC1=C(CC(=O)O)c2cc(Cl)ccc2/C1=C\c1ccc(Oc2ccc(F)cc2)cc1 [C63, (Z)-2-(5-Chloro-1-(4-(4-fluorophenoxy)benzylidene)-2-methyl-1H-inden-3-yl)acetic acid]
inhibition at 3.3 µM [1]: 30 to 50% | inhibition at 10 µM [1]: ≥ 50% | inhibition at 3.3 µM [2, 8]: 30 to 50% | inhibition at 10 µM [2, 8]: 30 to 50% | inhibition at 30 µM ([2]; read-out: Antiproliferative activity in cancerous cells, A549): 30 to 50% | inhibition at 3.3 µM [3, 9]: ≥ 50% | inhibition at 10 µM [3, 9]: ≥ 50% | inhibition at 3.3 µM [4, 10]: < 30% | inhibition at 10 µM [4, 10]: < 30% | inhibition at 30 µM ([4]; read-out: Antiproliferative activity in cancerous cells, SW480): < 30% | inhibition at 3.3 µM [5]: 30 to 50% | inhibition at 10 µM [5]: 30 to 50% | inhibition at 3.3 µM [6, 11]: < 30% | inhibition at 10 µM [6, 11]: < 30% | inhibition at 30 µM ([6]; read-out: Antiproliferative activity in cancerous cells, MDA-MB-231): 30 to 50% | inhibition at 3.3 µM [7]: 30 to 50% | inhibition at 10 µM [7]: ≥ 50%

CC1=C(CC(=O)O)c2cc(Cl)c(Cl)cc2/C1=C\c1ccc(Oc2ccc(F)cc2)cc1 [C83, (Z)-2-(5,6-Dichloro-1-(4-(4-fluorophenoxy)benzylidene)-2-methyl-1H-inden-3-yl)acetic acid]
inhibition at 3.3 µM [1]: ≥ 50% | inhibition at 10 µM [1]: ≥ 50% | inhibition at 3.3 µM [2, 8]: ≥ 50% | inhibition at 10 µM [2, 8]: ≥ 50% | inhibition at 3.3 µM [3, 9]: ≥ 50% | inhibition at 10 µM [3, 9]: ≥ 50% | inhibition at 3.3 µM [4, 10]: ≥ 50% | inhibition at 10 µM [4, 10]: ≥ 50% | inhibition at 3.3 µM [5]: ≥ 50% | inhibition at 10 µM [5]: ≥ 50% | inhibition at 3.3 µM [6, 11]: ≥ 50% | inhibition at 10 µM [6, 11]: ≥ 50% | inhibition at 3.3 µM [7]: < 30% | inhibition at 10 µM [7]: ≥ 50%

CC1=C(CC(=O)O)c2cc(F)ccc2/C1=C\c1ccc(CCCc2ccccc2)cc1 [B114, (Z)-2-(5-Fluoro-2-methyl-1-(4-(3-phenylpropyl)benzylidene)-1H-inden-3-yl)acetic acid]
inhibition at 3.3 µM [1]: ≥ 50% | inhibition at 10 µM [1]: ≥ 50% | inhibition at 3.3 µM [2, 8]: 30 to 50% | inhibition at 10 µM [2, 8]: ≥ 50% | inhibition at 3.3 µM [3, 9]: 30 to 50% | inhibition at 10 µM [3, 9]: ≥ 50% | inhibition at 3.3 µM [4, 10]: ≥ 50% | inhibition at 10 µM [4, 10]: ≥ 50% | inhibition at 3.3 µM [5]: < 30% | inhibition at 10 µM [5]: < 30% | inhibition at 3.3 µM [6, 11]: < 30% | inhibition at 10 µM [6, 11]: < 30% | inhibition at 3.3 µM [7]: ≥ 50% | inhibition at 10 µM [7]: ≥ 50%

COc1cc(Oc2ccc(F)cc2)ccc1/C=C1/C(C)=C(CC(=O)O)c2cc(F)ccc21 [C51, (Z)-2-(5-Fluoro-1-(4-(4-fluorophenoxy)-2-methoxybenzylidene)-2-methyl-1H-inden-3-yl)acetic acid]
inhibition at 3.3 µM [1]: 30 to 50% | inhibition at 10 µM [1]: ≥ 50% | inhibition at 3.3 µM [2, 8]: 30 to 50% | inhibition at 10 µM [2, 8]: 30 to 50% | inhibition at 3.3 µM [3, 9]: ≥ 50% | inhibition at 10 µM [3, 9]: ≥ 50% | inhibition at 3.3 µM [4, 10]: 30 to 50% | inhibition at 10 µM [4, 10]: ≥ 50% | inhibition at 3.3 µM [5]: ≥ 50% | inhibition at 10 µM [5]: ≥ 50% | inhibition at 3.3 µM [6, 11]: 30 to 50% | inhibition at 10 µM [6, 11]: ≥ 50% | inhibition at 3.3 µM [7]: < 30% | inhibition at 10 µM [7]: ≥ 50%
